Laboratory results taken from PMC4357465, “Tool Compounds Robustly Increase Turnover of an Artificial Substrate by Glucocerebrosidase in Human Brain Lysates” (PLoS ONE, 2015).
Several values for one entry are separate records, joined by “and”; a condition that tells them apart may be missing. Equal entries are not always repeated.

Legend:
Assay type in all cases: biochemical
[1] = target: T1, GBA1 in mouse brain lysates (Mus musculus, UniProt P17439); experiment: GBA1 tissue assay, 4MUG turnover in mouse brain lysates; settings: mouse brain lysate 10 μg, with sodium taurocholate
T1 construct: Mouse brain was obtained from 4–7 month old C57BL/6J mice; from tissue; host or cells: brain of C57BL/6J mice
T1 sequence (P17439 20-515): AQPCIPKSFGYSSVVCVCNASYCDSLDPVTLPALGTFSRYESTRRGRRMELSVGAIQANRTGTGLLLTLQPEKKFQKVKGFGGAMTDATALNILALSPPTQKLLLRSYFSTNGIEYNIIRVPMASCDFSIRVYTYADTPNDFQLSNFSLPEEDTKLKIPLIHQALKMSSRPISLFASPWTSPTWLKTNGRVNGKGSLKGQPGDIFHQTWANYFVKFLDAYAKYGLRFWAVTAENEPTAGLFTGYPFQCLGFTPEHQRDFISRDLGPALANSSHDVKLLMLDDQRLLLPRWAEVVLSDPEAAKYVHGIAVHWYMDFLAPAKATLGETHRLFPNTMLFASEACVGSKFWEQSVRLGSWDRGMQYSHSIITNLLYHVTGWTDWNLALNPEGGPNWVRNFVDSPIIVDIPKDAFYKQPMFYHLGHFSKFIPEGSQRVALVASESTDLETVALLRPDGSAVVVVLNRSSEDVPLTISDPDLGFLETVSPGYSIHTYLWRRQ
Description: (§1) Human cortex was acquired from brain banks (Tissue Solutions: http://www.tissue-solutions.com; Proteogenex: http://www.proteogenex.com). Human cortex samples were obtained from deceased aged Caucasian subjects without any diagnosis of neurodegenerative disorders. Mouse brain was obtained from 4–7 month old C57BL/6J mice. All mouse experiments were performed in accordance with the specifications of both the National Institutes of Health Guide for the Care and Use of Laboratory Animals, studies were approved by Pfizer’s Internal Animal Care and Use Committee (IACUC). […] Samples were then centrifuged at 20,000g for 15 minutes at 4°C. Supernatant was collected, and used for activity assays and Western blots. Protein concentration was determined using the Pierce BCA protein assay kit. Tissue lysates and pellets were stored at -80°C until use. For enzymatic activity assays, lysates were subjected only to one free-thaw cycle. Independent replicates were obtained using brain lysates from either different human subjects or different mice. […] Brain tissue lysates were diluted to 0.4 μg/ μl of protein in the same homogenization buffer, as described above. 25 μl of diluted lysate was added to the plate (Costar, 7200567). Lysates were then incubated on ice in the presence or absence of a compound for 30 minutes. 100 μl of assay buffer was then added to the plate. The same assay buffer was used as in the cell free/recombinant experiments and processed as described above.

[2] = test system: GBA1 in mouse brain lysates; experiment: as above; settings: mouse brain lysate 10 μg, without sodium taurocholate
Description: as §1

[3] = test system: GBA1 in lysates from human cortex; experiment: GBA1 tissue assay, 4MUG turnover in human cortex lysates; settings: human cortex lysate 10 μg, without sodium taurocholate
Description: (§2) Brain lysates were prepared by mechanical homogenization of mouse brain and human cortex in 10x weight/volume of the homogenization buffer used in the GBA1 enzymatic cell-free assay (250 mM Sucrose, 10 mM Tris pH = 7.5, 1 mM EDTA, 0.25% Triton X-100 solution, protease inhibitors, phosphatase inhibitors I and III, PMSF). Human cortex was acquired from brain banks (Tissue Solutions: http://www.tissue-solutions.com; Proteogenex: http://www.proteogenex.com). Human cortex samples were obtained from deceased aged Caucasian subjects without any diagnosis of neurodegenerative disorders. Mouse brain was obtained from 4–7 month old C57BL/6J mice. All mouse experiments were performed in accordance with the specifications of both the National Institutes of Health Guide for the Care and Use of Laboratory Animals, studies were approved by Pfizer’s Internal Animal Care and Use Committee (IACUC).
(§3) Prior to 30 min lysis on ice, human brain samples were also sonicated for 15 seconds as this step was needed to fully extract GBA1 (data not shown). Samples were then centrifuged at 20,000g for 15 minutes at 4°C. Supernatant was collected, and used for activity assays and Western blots. Protein concentration was determined using the Pierce BCA protein assay kit. Tissue lysates and pellets were stored at -80°C until use. For enzymatic activity assays, lysates were subjected only to one free-thaw cycle. Independent replicates were obtained using brain lysates from either different human subjects or different mice.
(§4) GBA1 activity in tissues was measured using the assay conditions described in the previous section. 10 μg of protein/well was used for the activity experiments, unless stated otherwise. Brain tissue lysates were diluted to 0.4 μg/ μl of protein in the same homogenization buffer, as described above. 25 μl of diluted lysate was added to the plate (Costar, 7200567). Lysates were then incubated on ice in the presence or absence of a compound for 30 minutes. 100 μl of assay buffer was then added to the plate. The same assay buffer was used as in the cell free/recombinant experiments and processed as described above.

[4] = target: T2, GBA1 in lysates from human cortex (Homo sapiens, UniProt P04062); experiment: as above; settings: human cortex lysate 10 μg, with sodium taurocholate
T2 construct: Human cortex samples were obtained from deceased aged Caucasian subjects without any diagnosis of neurodegenerative disorders; tissue Tissue Solutions; Proteogenex; host or cells: human cortex (post mortem)
T2 sequence (P04062 40-536): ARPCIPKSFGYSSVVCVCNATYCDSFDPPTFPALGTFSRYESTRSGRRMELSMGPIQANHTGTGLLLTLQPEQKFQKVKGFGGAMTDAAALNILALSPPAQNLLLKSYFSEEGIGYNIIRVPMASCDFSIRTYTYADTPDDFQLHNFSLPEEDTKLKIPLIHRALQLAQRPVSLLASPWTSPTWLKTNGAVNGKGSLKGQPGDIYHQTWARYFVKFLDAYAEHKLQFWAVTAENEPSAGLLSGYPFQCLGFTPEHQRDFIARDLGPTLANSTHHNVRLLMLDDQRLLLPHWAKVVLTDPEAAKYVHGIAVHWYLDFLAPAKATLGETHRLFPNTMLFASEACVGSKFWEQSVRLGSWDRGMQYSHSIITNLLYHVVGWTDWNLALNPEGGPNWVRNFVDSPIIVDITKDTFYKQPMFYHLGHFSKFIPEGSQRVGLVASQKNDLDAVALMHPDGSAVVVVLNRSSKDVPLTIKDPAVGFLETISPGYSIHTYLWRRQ
Description: as §2, §3, §4

Row | % inhibition: + NaTc ([1]; 1mM) | % inhibition + NaTc ([4]; 1mM) | inhibition at 1 µM ([1]; 1 μM, read-out: % inhibition: + NaTc) | % inhibition + NaTc ([4]; 1 μM) | inhibition at 1 µM ([4]; 1 μM, read-out: % inhibition + NaTc) | SMILES | % inhibition: - NaTc ([2]; 1mM) | % inhibition - NaTc ([3]; 1mM) | % inhibition: - NaTc ([2]; 1 μM) | % inhibition - NaTc ([3]; 1 μM) | % inhibition - NaTc ([3]; 1 μM, listed as isofagomine)
1 | 82% ± 1% | 86 ± 4% and ~ 90% |  |  |  | O[C@H]1[C@H](O)[C@@H](O)[C@@H]2O[C@@H]2[C@@H]1O [CBE] | 32% ± 4% | 31 ± 8% and ~ 30% |  |  | 
2 |  |  | 82% | ~ 90% | 92 ± 2% | OC[C@H]1CNC[C@@H](O)[C@@H]1O [Isofagomine, isofagomine] |  |  | 21% ± 3% | 27 ± 4% | ~ 30%
